Data set [1] in a line: Physiological monitoring (SaO2, heart rate, respiratory rate, ECG) during MRI, pre versus post contrast agent. In kind it is in vivo. The following applies: for changes in SaO2, HR, RR or ECG parameters (ST, T wave morphology, rhythm), pre versus post contrast agent: up to 2 hours after contrast agent. The source says:
Wild type C57BL/6 mice 6-10 months of age (25-30 gr) were used in all experiments. Since variations in physiological processes can influence the MRI signal in the brain, various monitoring devices were used while the mouse was being imaged. Heart rate, respiratory rate and SaO2 were continuously monitored using pulse oximetry (Model V33304, Sergivet). The probe was attached to the lower abdomen. A rectal temperature was continuously monitored with a thermestor (YSI Precision Thermometer 4000A).
ECG was monitored in a physiogard (SM 785, Brucker) by using subcutaneous silver electrodes from the front limbs and the reference electrode placed at the right posterior limb.
Comparisons were made within the groups pre with post contrast agent up to 2 hours after IV (feridex or gadodiamide) or IP GD (10 mmol/kg) (Table 1).
Thus, 10 mmol/kg was identified as the optimum dose of GD, and this dose was used for all further experiment unless otherwise indicated. […] Since the goal is to keep scan time as short as possible, in order to minimize morbidity and mortality, a 45 minutes time point was identified as the optimum post-contrast time interval.

For data set [2] the following is noted: humans; cited from earlier work.
For data set [3] the following is noted: rats, IV; cited from earlier work.
For data set [4] the following is noted: mice, IV; cited from earlier work.
Where [5] appears, read: IP 15 mmol/kg, individual mice with toxicity, listed as GD.

This is an account of results in patent US20070264200A1, “Mouse MRI for drug screening” (priority 2005, published 2007).

Where “and” joins values, the source holds several entries; their conditions need not be identical. Equal values may be shown once. Read-outs that look alike come from different tables or passages of the source.

For `CNC(=O)CN(CCN(CCN(CC(=O)[O-])CC(=O)NC)CC(=O)[O-])CC(=O)[O-].[Gd+3]` [gadodiamide], the “changes in SaO2, HR, RR or ECG parameters (ST, T wave morphology, rhythm), pre versus post contrast agent” value in data set [1] (IP 10 mmol/kg) and in data set [1] (IV) was “No significant changes” throughout. In data set [1] (setting [5]), the “RR (respiratory rate)” value was 100 and 110. The SaO2 in data set [1] (setting [5]) was 72 and 65. Also, in data set [1] (IP 15 mmol/kg, two mice, procedure aborted), the “toxicity (significant changes in vital signs)” value was “caused toxicity”. The elimination half-life result in data set [2] is “approximately 1.5 hours”; in data set [3] it was “about 20 minutes”; in data set [4], 5 to 6 min.
